In one experiment the test system is Escherichia coli. Description: Inhibition of Escherichia coli PBP1b-mediated lipid 2 incorporation into peptidoglycon at 6 uM.
A further experiment concerns Staphylococcus aureus. Description: Antibacterial activity against Staphylococcus aureus ATCC 29213 after 24 hrs by microdilution assay. The experiment is classed as functional. The note with it: ATCC 29213, 24 h.
Experiment [1] is described as follows: Binding affinity to synthetic lipid 2 analogue fl-LPII.

Converted amounts (≈) assume the structure as drawn. The source made the active and inactive calls. The rule behind the calls is not given here.

`CC(C)C/C=C/C=C/C(=O)N[C@@H](CC(N)=O)C(=O)N[C@H]1CNC(=O)[C@H](c2ccc(O)c(Cl)c2)NC(=O)[C@@H](C)NC(=O)[C@H](CC(C)C)NC(=O)CNC(=O)[C@H](c2ccc(O)cc2)NC(=O)[C@@H]([C@@H](C)O)NC(=O)[C@H](c2ccc(O)cc2)NC(=O)[C@@H](CCCN)NC(=O)[C@H](Cc2ccccc2)NC(=O)[C@H]([C@H](C)O)NC(=O)[C@@H](c2ccc(O)cc2)NC(=O)[C@H](c2ccc(O)cc2)NC(=O)[C@@H]([C@@H](C)O)NC(=O)[C@H](C)NC(=O)[C@@H](c2ccc(O)cc2)NC1=O`: in the experiment with Escherichia coli, the inhibition entry is “inactive”. In the experiment with Staphylococcus aureus, this compound gave an MIC of 31 µg/mL (≈ 14.5 µM). Further, in experiment [1], the Kd was 4300 nM.
For the compound `CC(C)C/C=C/C=C/C(=O)N[C@@H](CC(N)=O)C(=O)N[C@H]1CNC(=O)[C@H](c2ccc(O)c(Cl)c2)NC(=O)[C@@H](C)NC(=O)[C@H](CC(C)C)NC(=O)CNC(=O)[C@H](c2ccc(O)cc2)NC(=O)[C@@H]([C@@H](C)O)NC(=O)[C@H](c2ccc(O)cc2)NC(=O)[C@@H](CCCN)NC(=O)C(C)NC(=O)[C@H]([C@H](C)O)NC(=O)[C@@H](c2ccc(O)cc2)NC(=O)[C@H](c2ccc(O)cc2)NC(=O)[C@@H]([C@@H](C)O)NC(=O)[C@@H](CCCN)NC(=O)[C@@H](c2ccc(O)cc2)NC1=O` (single isomer, unassigned), the inhibition result in the experiment with Escherichia coli was “Active”. Further, the MIC with Staphylococcus aureus is 1.6 µg/mL (≈ 0.758 µM). For the same compound, in experiment [1], the dissociation constant Kd was 383 nM.
With `CC(C)C/C=C/C=C/C(=O)N[C@@H](CC(N)=O)C(=O)N[C@H]1CNC(=O)[C@H](c2ccc(O)c(Cl)c2)NC(=O)[C@@H](C)NC(=O)[C@H](CC(C)C)NC(=O)CNC(=O)[C@H](c2ccc(O)cc2)NC(=O)[C@@H]([C@@H](C)O)NC(=O)[C@H](c2ccc(O)cc2)NC(=O)[C@@H](CCCN)NC(=O)[C@H](Cc2ccccc2)NC(=O)[C@H]([C@H](C)O)NC(=O)[C@@H](c2ccc(O)cc2)NC(=O)[C@H](C)NC(=O)[C@@H]([C@@H](C)O)NC(=O)[C@@H](CCCN)NC(=O)[C@@H](c2ccc(O)cc2)NC1=O`, the inhibition result in the experiment with Escherichia coli was “Active”. The MIC against Staphylococcus aureus turned out to be 1.6 µg/mL (≈ 0.759 µM). In experiment [1], this compound came in with a dissociation constant Kd of 378 nM.
As for `CC(C)C/C=C/C=C/C(=O)N[C@@H](CC(N)=O)C(=O)N[C@H]1CNC(=O)[C@H](c2ccc(O)c(Cl)c2)NC(=O)[C@@H](C)NC(=O)[C@H](CC(C)C)NC(=O)CNC(=O)[C@H](c2ccc(O)cc2)NC(=O)[C@@H]([C@@H](C)O)NC(=O)[C@H](c2ccc(O)cc2)NC(=O)[C@@H](CCCN)NC(=O)[C@H](Cc2ccccc2)NC(=O)[C@H]([C@H](C)O)NC(=O)[C@@H](c2ccc(O)cc2)NC(=O)[C@H](c2ccc(O)cc2)NC(=O)[C@@H]([C@@H](C)O)NC(=O)[C@@H](CCCN)NC(=O)[C@H](C)NC1=O`, the inhibition result with Escherichia coli was “Active”. Moreover, in the experiment on Staphylococcus aureus, it took 13 µg/mL (≈ 6.17 µM) to inhibit growth (MIC).
Regarding `CC(C)C/C=C/C=C/C(=O)N[C@@H](CC(N)=O)C(=O)N[C@H]1CNC(=O)[C@H](c2ccc(O)c(Cl)c2)NC(=O)[C@@H](C)NC(=O)[C@H](CC(C)C)NC(=O)CNC(=O)[C@H](c2ccc(O)cc2)NC(=O)[C@@H]([C@@H](C)O)NC(=O)[C@H](c2ccc(O)cc2)NC(=O)[C@@H](CCCN)NC(=O)[C@H](Cc2ccccc2)NC(=O)[C@H]([C@H](C)O)NC(=O)[C@H](C)NC(=O)[C@H](c2ccc(O)cc2)NC(=O)[C@@H]([C@@H](C)O)NC(=O)[C@@H](CCCN)NC(=O)[C@@H](c2ccc(O)cc2)NC1=O`, the inhibition result with Escherichia coli is “inactive”. The same compound registered a minimum inhibitory concentration (MIC) against Staphylococcus aureus of 13 µg/mL (≈ 6.17 µM). In experiment [1], this compound had an equilibrium dissociation constant (Kd) of 1200 nM.
Take `CC(C)C/C=C/C=C/C(=O)N[C@@H](CC(N)=O)C(=O)N[C@H]1CNC(=O)[C@H](c2ccc(O)c(Cl)c2)NC(=O)[C@@H](C)NC(=O)[C@H](CC(C)C)NC(=O)CNC(=O)[C@H](c2ccc(O)cc2)NC(=O)[C@H](C)NC(=O)[C@H](c2ccc(O)cc2)NC(=O)[C@@H](CCCN)NC(=O)[C@H](Cc2ccccc2)NC(=O)[C@H]([C@H](C)O)NC(=O)[C@@H](c2ccc(O)cc2)NC(=O)[C@H](c2ccc(O)cc2)NC(=O)[C@@H]([C@@H](C)O)NC(=O)[C@@H](CCCN)NC(=O)[C@@H](c2ccc(O)cc2)NC1=O`: the inhibition result with Escherichia coli was “inactive”. Further, it took 33 µg/mL (≈ 15.3 µM) to inhibit growth against Staphylococcus aureus (MIC). The same compound had a dissociation constant Kd in experiment [1] of 5400 nM.
Consider `CC(C)C/C=C/C=C/C(=O)N[C@@H](CC(N)=O)C(=O)N[C@@H]1C(=O)N[C@H](c2ccc(O)cc2)C(=O)N[C@H](CCCN)C(=O)N[C@H]([C@@H](C)O)C(=O)N[C@@H](c2ccc(O)cc2)C(=O)N[C@H](c2ccc(O)cc2)C(=O)N[C@@H]([C@H](C)O)C(=O)N[C@@H](Cc2ccccc2)C(=O)N[C@H](CCCN)C(=O)N[C@@H](c2ccc(O)cc2)C(=O)N[C@H]([C@@H](C)O)C(=O)N[C@@H](c2ccc(O)cc2)C(=O)NCC(=O)N[C@@H](CC(C)C)C(=O)N[C@H](C)C(=O)N[C@@H](c2ccc(O)c(Cl)c2)C(=O)O[C@@H]1C(N)=O` [RAMOPLANIN AGLYCON], for which the inhibition result in the experiment with Escherichia coli was “Active”. In the experiment with Staphylococcus aureus, this compound returned an MIC of 0.4 µg/mL (≈ 0.179 µM). Also, the dissociation constant Kd in experiment [1] is 40 nM.
Turning to `CC(C)C/C=C/C=C/C(=O)N[C@@H](CC(N)=O)C(=O)N[C@H]1CNC(=O)[C@H](c2ccc(O)c(Cl)c2)NC(=O)[C@@H](C)NC(=O)[C@H](CC(C)C)NC(=O)CNC(=O)[C@H](c2ccc(O)cc2)NC(=O)[C@@H]([C@@H](C)O)NC(=O)[C@H](C)NC(=O)[C@@H](CCCN)NC(=O)[C@H](Cc2ccccc2)NC(=O)[C@H]([C@H](C)O)NC(=O)[C@@H](c2ccc(O)cc2)NC(=O)[C@H](c2ccc(O)cc2)NC(=O)[C@@H]([C@@H](C)O)NC(=O)[C@@H](CCCN)NC(=O)[C@@H](c2ccc(O)cc2)NC1=O`, in the experiment with Escherichia coli, the inhibition result is “inactive”. Besides, it took 6.3 µg/mL (≈ 2.99 µM) to inhibit growth against Staphylococcus aureus (MIC). The dissociation constant Kd in experiment [1] worked out at 6300 nM.
Consider `CC(C)C/C=C/C=C/C(=O)N[C@@H](CC(N)=O)C(=O)N[C@H]1CNC(=O)[C@H](c2ccc(O)c(Cl)c2)NC(=O)[C@@H](C)NC(=O)[C@H](CC(C)C)NC(=O)CNC(=O)[C@H](c2ccc(O)cc2)NC(=O)[C@@H]([C@@H](C)O)NC(=O)[C@H](c2ccc(O)cc2)NC(=O)[C@@H](CCCN)NC(=O)[C@H](Cc2ccccc2)NC(=O)[C@H]([C@H](C)O)NC(=O)[C@@H](c2ccc(O)cc2)NC(=O)[C@H](c2ccc(O)cc2)NC(=O)[C@@H]([C@@H](C)O)NC(=O)[C@@H](CCCN)NC(=O)[C@@H](c2ccc(O)cc2)NC1=O`, for which, in the experiment with Escherichia coli, the inhibition entry was “Active”. The compound also gave an MIC in the experiment with Staphylococcus aureus of 0.4 µg/mL (≈ 0.183 µM). The same compound came in with a Kd in experiment [1] of 33 nM.
In the case of `CC(C)C/C=C/C=C/C(=O)N[C@@H](CC(N)=O)C(=O)N[C@H]1CNC(=O)[C@H](c2ccc(O)c(Cl)c2)NC(=O)[C@@H](C)NC(=O)[C@H](CC(C)C)NC(=O)CNC(=O)[C@H](c2ccc(O)cc2)NC(=O)[C@@H]([C@@H](C)O)NC(=O)[C@H](c2ccc(O)cc2)NC(=O)[C@@H](CCCN)NC(=O)[C@H](Cc2ccccc2)NC(=O)[C@H](C)NC(=O)[C@@H](c2ccc(O)cc2)NC(=O)[C@H](c2ccc(O)cc2)NC(=O)[C@@H]([C@@H](C)O)NC(=O)[C@@H](CCCN)NC(=O)[C@@H](c2ccc(O)cc2)NC1=O`, in the experiment with Escherichia coli, the inhibition result is “inactive”. The compound also gave an MIC against Staphylococcus aureus of 38 µg/mL (≈ 17.6 µM). Besides, the Kd in experiment [1] was determined as 8700 nM.
For `CC(C)C/C=C/C=C/C(=O)N[C@@H](CC(N)=O)C(=O)N[C@H]1CNC(=O)[C@H](c2ccc(O)c(Cl)c2)NC(=O)[C@@H](C)NC(=O)[C@H](CC(C)C)NC(=O)CNC(=O)[C@H](c2ccc(O)cc2)NC(=O)[C@@H]([C@@H](C)O)NC(=O)[C@H](c2ccc(O)cc2)NC(=O)C(C)NC(=O)[C@H](Cc2ccccc2)NC(=O)[C@H]([C@H](C)O)NC(=O)[C@@H](c2ccc(O)cc2)NC(=O)[C@H](c2ccc(O)cc2)NC(=O)[C@@H]([C@@H](C)O)NC(=O)[C@@H](CCCN)NC(=O)[C@@H](c2ccc(O)cc2)NC1=O` (single isomer, unassigned), the inhibition result in the experiment on Escherichia coli was “inactive”. The MIC with Staphylococcus aureus is above 50 µg/mL. The same compound came in with a Kd in experiment [1] of 6500 nM.
In the case of `CC(C)C/C=C/C=C/C(=O)N[C@@H](CC(N)=O)C(=O)N[C@H]1CNC(=O)[C@H](c2ccc(O)c(Cl)c2)NC(=O)[C@@H](C)NC(=O)[C@H](CC(C)C)NC(=O)CNC(=O)[C@H](c2ccc(O)cc2)NC(=O)[C@@H]([C@@H](C)O)NC(=O)[C@H](c2ccc(O)cc2)NC(=O)[C@@H](CCCN)NC(=O)[C@H](Cc2ccccc2)NC(=O)[C@H]([C@H](C)O)NC(=O)[C@@H](c2ccc(O)cc2)NC(=O)[C@H](c2ccc(O)cc2)NC(=O)[C@@H](C)NC(=O)[C@@H](CCCN)NC(=O)[C@@H](c2ccc(O)cc2)NC1=O`, the inhibition entry in the experiment on Escherichia coli was “Active”. Moreover, in the experiment with Staphylococcus aureus, the lowest concentration to inhibit growth (MIC) was 2.4 µg/mL (≈ 1.11 µM). Also, the Kd in experiment [1] amounted to 447 nM.

As usually defined, the MIC is the least concentration at which growth counts as inhibited. A low value points to greater potency. The Kd is the constant that tells how readily two partners part at equilibrium. A higher Kd goes with weaker binding.

Values taken from ChEMBL document CHEMBL1156070, “Functional and biochemical analysis of a key series of ramoplanin analogues” (Bioorg Med Chem Lett, 2009).
